Results as given in US20080267882A1, “Imaging compounds, methods of making imaging compounds, methods of imaging, therapeutic compounds, methods of making therapeutic compounds, and methods of therapy” (Stanford University, priority 2007, published 2008).

How the values were obtained:
[1] = literature; cited from earlier work
in vivo [2] = settings: c-neu oncomouse (MMTV/c-neu transgenic), mouse, iv, total radioactivity
Method: All animal experiments were performed under a protocol approved by Stanford's Administrative Panel on Laboratory Animal Care. […] The c-neu oncomouse (Charles River Laboratories, Charles River, Canada) is a spontaneous tumor-bearing model that carries an activated c-neu oncogene driven by a mouse mammary tumor virus (MMTV) promoter (Cell 1988;54:105-115, which is incorporated herein by reference for the corresponding discussion). Transgenic mice uniformly expressing the MMTV/c-neu gene develop mammary adenocarcinomas between 4 and 8 months postpartum that involve the entire epithelium in each gland. […] Each mouse was tail-vein injected with about 3.7 MBq (100 μCi) of ^18[…]2 under isoflurane anesthesia. The 30-min dynamic scan (1×30 s, 4×1 min, 1×1.5 min, 4×2 min, 1×2.5 min, 4×3 min, total of 15 frames) was started 1 min after injection. Five min static PET images were also acquired at 1 h and 2 h post-injection (p.i.). The images were reconstructed by a 2-dimensional ordered-subsets expectation maximum (OSEM) algorithm and no correction was applied for attenuation or scatter. […] Animal procedures were performed according to a protocol approved by the Stanford University Institutional Animal Care and Use Committee. […] The c-neu oncomouse (Charles River Laboratories, Charles River, Canada) is a spontaneous tumor-bearing model that carries an activated c-neu oncogene driven by a mouse mammary tumor virus (MMTV) promoter (Cell. 1988;54:105-115, which is incorporated herein by reference for the corresponding discussion). Transgenic mice uniformly expressing the MMTV/c-neu gene develop mammary adenocarcinomas between 4 and 8 months postpartum that involve the entire epithelium in each gland. […] PET scans and image analysis were performed using a microPET R4 rodent model scanner (Siemens Medical Solutions) as previously reported. […] Five min static PET images were also acquired at 1, 2, and 3 h p.i. The images were reconstructed by 2-dimensional ordered-subsets expectation maximum (OSEM) algorithm. No attenuation or scatter correction was applied. […] The 5-min static PET scans was then acquired at 30 min and 1 h p.i. […] Animal procedures were performed according to a protocol approved by Stanford University Institutional Animal Care and Use Committee. […] Transgenic mice uniformly expressing the MMTV/c-neu gene develop mammary adenocarcinomas (4 to 8 months postpartum) that involve the entire epithelium in each gland. […] Five minute static scans were acquired at 30 min, 1 h, 2 h, 6 h, and 20 h p.i. […] The radioactivity concentration (accumulation) within a tumor was obtained from the maximum value within the multiple ROIs and then converted to % ID/g.

in vivo [3] = settings: female, athymic nude, mouse, iv, total radioactivity
Outline: (§1)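 microPET of U87MG-bearing mice after tail-vein injection of about 3.7 MBq ^18F-labelled RGD tracer under isoflurane; 30-min dynamic scan from 1 min p.i. plus 5-min static scans at 1–3 h. Tumour ROIs on decay-corrected coronal images, OSEM reconstruction without attenuation or scatter correction, converted to %ID/g.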

[4] = tested on: rat myocardial infarction; assay: microPET imaging of rat myocardial infarction; type: in vivo; settings: scan 1 h after injection
Source text: Induction of MI was done as previously described by our laboratory. Adult female Sprague-Dawley rats (weight 150-200 g; Charles River Laboratories, Wilmington, Mass.) were used for this study. […] The anesthesia was then maintained with isoflurane (2%). MI was induced by ligation of the left anterior descending coronary artery 2 to 3 mm from the tip of the left auricle with a 7-0 polypropylene suture. […] In the sham operated animals, a suture was placed in the myocardium (without ligating the left coronary artery). Animals were anesthetized with isofluorane (2%) and injected with approximately 1 mCi (37 MBq) of ^64Cu-DOTA-[…]2) via the tail vein and allowed to recover. […] At the time of scanning, animals were anesthesized with isofluorane (2%) and prone positioned on the microPET Concorde R4 rodent model scanning gantry (Siemens A G, Malvern, Pa.). The scanner has a computer-controlled bed and 10.8-cm transaxial and 8-cm axial fields of view (FOV). […] It has no septa and operates exclusively in the 3-dimensional list mode. A 15 minute static acquisition was performed with the mid thorax in the center of the field of view (FOV), and images reconstructed using a filtered back projection algorithm.

in vivo [5] = settings: female, athymic nude, mouse, total radioactivity
Method: All mice were sacrificed and dissected at 20 h post-injection (p.i.) of the tracer. Blood, U87MG tumor, major organs and tissues were collected and wet weighed. The radioactivity in the tissue was measured using a γ-counter (Packard). The results were presented as percentage injected dose per gram of tissue (% ID/g).

U87MG tumor-bearing mice = assay: in vivo; settings: mouse
Outline: as §1

[6] = mouse, in vivo
Method: A U87MG tumor mouse was intravenously injected with 3.7 MBq of ^18F-FPRGD2. At 1 h after injection, the mouse was sacrificed, the blood, urine, liver, kidneys, and the U87MG tumor were collected and metabolite analysis was carried out as previously reported (J Nucl Med 2006;47: 113-121 and J Nucl Med 2006;47:1172-1180, each of which is incorporated herein by reference for the corresponding discussion). In brief, blood sample was immediately centrifuged for 5 min at 13,200 rpm. Other tissues were homogenized and then centrifuged for 5 min at 13,200 rpm. The supernatant was each passed through a C18 Sep-Pak cartridge. The urine sample was directly diluted with 1 mL of PBS and passed through a C18 Sep-Pak cartridge. The cartridges were each washed with 2 mL of water and eluted with 2 mL of ACN containing 0.1% TFA. The ACN eluent was concentrated and injected onto the analytical HPLC. The eluent was collected with a fraction collector (0.5 min/fraction) and the radioactivity of each fraction was measured with the γ-counter.
The metabolic stability of ^18F-FPTA-RGD2 was evaluated in an athymic nude mouse bearing a U87MG tumor. Sixty min after intravenous injection of 2 MBq of ^18F-FPTA-RGD2, the mouse was sacrificed and relevant organs were harvested. The blood was collected and immediately centrifuged for 5 min at 13,200 rpm. Liver, kidneys and tumor were homogenized and then centrifuged for 5 min at 13,200 rpm. After removal of the supernatants, the pellets were washed with 1 mL PBS. For each sample, supernatants of both centrifugation steps of blood, liver, and kidneys were combined and passed through C18 Sep-Pak cartridges. The urine sample was directly diluted with 1 mL of PBS and passed through a C18 Sep-Pak cartridge. The cartridges were each washed with 2 mL of water and eluted with 2 mL of ACN containing 0.1% TFA. After evaporation of the solvent, the residues were redissolved in 1 mL PBS and were injected onto the analytical HPLC. The eluent was collected with a fraction collector (0.5 min/fraction) and the radioactivity of each fraction was measured with the γ-counter.

stroke rats (dMCAO) = assay: microPET imaging of dMCAO stroke rats; type: in vivo, rat
Source text: Anesthesia for Sprague-Dawley rats (290-350 g) was induced by 5% isoflurane and maintained by 2-3% isoflurane. A ventral midline incision was made and the two CCAs were isolated. Snares were placed around the CCAs and the animal was placed on its right side. A 2 cm vertical scalp incision was made midway between the left eye and ear. The temporalis muscle was bisected and a 2 mm burr hole was made at the junction of the zygomatic arch and squamous bone. The distal MCA was exposed and ligated above the rhinal fissure with a 10-0 suture. The CCA snares were tightened to occlude the CCAs for 2 h. In the permanent MCA occlusion model, both CCAs were then released, while the distal MCA remained occluded.

tissue uptake at 20 h (in vivo [2]; 9.3 MBq) [%ID/g]	tissue uptake at 1 h (in vivo [2]) [%ID/g]	tissue uptake at 2 h (in vivo [3]; 10 mg/kg, U87MG tumor uptake with blocking) [%ID/g]	tissue uptake at 6 h (in vivo [3]; 9.3 MBq, U87MG tumor uptake) [%ID/g]	tissue uptake at 20 h (in vivo [3]; 9.3 MBq, U87MG tumor uptake) [%ID/g]	tissue uptake at 0.5 h (in vivo [3]; U87MG tumor uptake) [%ID/g]	tissue uptake at 1 h (in vivo [3]; U87MG tumor uptake) [%ID/g]	tissue uptake at 2 h (in vivo [3]; U87MG tumor uptake) [%ID/g]	tissue uptake at 20 h (in vivo [5]) [%ID/g]	residence time for kidneys (U87MG tumor-bearing mice) [h]	defluoridation [6]	extraction efficiency (radioactivity in the supernatant) [6]	non-retained fraction (activity not trapped on C18 cartridges) [6]	Molecule	log stability constant [1]	myocardial tracer uptake after MI induction [4]	microPET signal in wound and stroke lesion (stroke rats (dMCAO); day 1 after dMCAO)	microPET signal in wound and stroke lesion (stroke rats (dMCAO); day 9 after dMCAO)
													O=C([O-])CN1CCN(CC(=O)[O-])CCN(CC(=O)[O-])CC1.[Ga+3] [Ga-NOTA]	30.98			
3.6 ± 0.4	4.4 ± 0.9	2.2 ± 0.1	7.7 ± 1.6	6.4 ± 0.7	10.3 ± 1.6	9.6 ± 1.4	8.6 ± 1	5 ± 0.7					N=C(N)NCCC[C@@H]1NC(=O)[C@H](CCCCNC(=O)CC[C@H](NC(=O)CC[C@H](NC(=O)CN2CCN(CC(=O)O)CCN(CC(=O)O)CCN(CC(=O)O)CC2)C(=O)N[C@@H](CCC(=O)NCCCC[C@@H]2NC(=O)[C@@H](Cc3ccc(O)cc3)NC(=O)[C@H](CC(=O)O)NC(=O)CNC(=O)[C@H](CCCNC(=N)N)NC2=O)C(=O)NCCCC[C@@H]2NC(=O)[C@@H](Cc3ccc(O)cc3)NC(=O)[C@H](CC(=O)O)NC(=O)CNC(=O)[C@H](CCCNC(=N)N)NC2=O)C(=O)NCCCC[C@@H]2NC(=O)[C@@H](Cc3ccc(O)cc3)NC(=O)[C@H](CC(=O)O)NC(=O)CNC(=O)[C@H](CCCNC(=N)N)NC2=O)NC(=O)[C@@H](Cc2ccc(O)cc2)NC(=O)[C@H](CC(=O)O)NC(=O)CNC1=O [^64Cu-DOTA-RGD tetramer, ^64Cu-DOTA-E{E[c(RGDyK)]2}2, metal not drawn]		occurs in areas supplied by the ligated coronary artery		
									0.016	No defluoridation was observed	75-95%	less than 30%	^18F-FB-mini-PEG-E[c(RGDyK)]2 [^18F-FPRGD2]		significant increase in uptake	Both wound and the lesion were detectable at day 1	the signal in the lesion reflecting angiogenesis is remained
